What was measured:
[1] = test system: primary human endothelial cells expressing luciferase under the control of the KLF2 promoter; test: KLF2 induction cell based bioassay (GLuc KLF2 concentration response, luciferase reporter); conditions: 24 hours incubation, 11-point concentration response; for IC50: 24 h, read-out: GLuc KLF2 Conc Response (IC50) Avg; for EC50: EC50 = concentration where normalized curve passes 0.5, read-out: GLuc KLF2 Conc Response (EC50) Ave
Text: In endothelial cell culture media, a stock of the highest working concentration was made at no more than 1% DMSO vehicle. The working stock was then serially diluted 1:2 to make an 11-point concentration response curve. Included in the 96-well plate were 2 reference compounds with known potencies. A DMSO column was included in the 96-well plate at the highest percent vehicle of the working stocks. The 96-well cell culture plate of primary human endothelial cells expressing luciferase under the control of the KLF2 promoter was dosed with 200 μL per well of the dilution series as well as the DMSO control column. The assay plate was incubated at 37° C. for 24 hours. The supernatant was collected at 24 hours.
20 μL of the supernatant was then placed in a 384-well plate with optical duplicates. The corners of the plate received 20 μL of the Gaussia Luciferase Enzyme positive control, as well as 20 μL of the 50 μM Coelenterizine substrate. The plate read is then calibrated using the control, and read using a Molecular Devices SpectraMax iD5, providing luminescence in relative light units (RLU). The plate reader injected 20 μL of the 50 μM Coelenterazine substrate immediately before taking the RLU measurement for each well.
The sample signals were then normalized to the average signal of the DMSO column, as well as to the maximum signal of one of the reference compounds, as shown in the equations below: […]
The EC50 of each compound is then defined as when the concentration response curve passes 0.5.

KLF2 = test: qPCR KLF2 concentration response; type: cell-based; conditions: read-out: qPCR KLF2 Conc Response (EC50)

SMILES	IC50 [1]	EC50 [1]	EC50 (KLF2)
COc1ccccc1CNC(=O)C1(C)COc2c(oc3ccccc23)C(=O)N1CC1(F)CCC1 (centres unmarked) [Example 2]	200 nM	20 nM	10 nM
COc1ccccc1CNC(=O)C1(C)COc2c(oc3ccccc23)C(=O)N1CC(C)(C)OC (centres unmarked) [Example 3]	340 nM	60 nM	10 nM
C#CCCN1C(=O)c2oc3ccccc3c2OCC1(C)C(=O)NCc1ccccc1OC (centres unmarked) [Example 5]	150 nM	40 nM	–
C#CCCN1C(=O)c2oc3ccccc3c2OC[C@]1(C)C(=O)NCc1ccccc1OC [Example 6]	70 nM	20 nM	10 nM

Reference: patent US20250109143A1, “KLF2 INDUCING DEUTERATED COMPOUNDS AND USES THEREOF” (Riparian Pharmaceuticals, Inc., priority 2023, published 2025)
